Blank lines part the entries; values can stand above or below the compound they belong to.
Experiments:
HIPK1 (human) [1] = molecular target: HIPK1 (human) (UniProt Q86Z02); experiment: SelectScreen, TR FRET
HIPK2 (human) = HIPK2 (human) (UniProt Q9H2X6); experiment: SelectScreen, TR FRET
PIM1 (human) [2] = molecular target: PIM1 (human) (UniProt P11309); experiment: SelectScreen, TR FRET
PIM2 (human) [3] = molecular target: PIM2 (human) (UniProt Q9P1W9); experiment: SelectScreen, TR FRET
PIK3CG (human) = PIK3CG (human) (UniProt P48736); experiment: KINOMEscan competition binding; settings: compound 10.0 µM
CSNK2A2 (human) = CSNK2A2 (human) (UniProt P19784); experiment: KINOMEscan competition binding; settings: compound 10.0 µM
MINK1 (human) = MINK1 (human) (UniProt Q8N4C8); experiment: KINOMEscan competition binding; settings: compound 10.0 µM
STK17A (human) = STK17A (human) (UniProt Q9UEE5); experiment: KINOMEscan competition binding; settings: compound 10.0 µM
MAPK15 (human) = MAPK15 (human) (UniProt Q8TD08); experiment: KINOMEscan competition binding; settings: compound 10.0 µM
PIM1 (human) [4] = molecular target: PIM1 (human) (UniProt P11309); experiment: KINOMEscan competition binding; settings: compound 10.0 µM
CDK7 (human) = CDK7 (human) (UniProt P50613); experiment: KINOMEscan competition binding; settings: compound 10.0 µM
PIM3 (human) = PIM3 (human) (UniProt Q86V86); experiment: KINOMEscan competition binding; settings: compound 10.0 µM
TGFBR2 (human) = TGFBR2 (human) (UniProt P37173); experiment: KINOMEscan competition binding; settings: compound 10.0 µM
PIM2 (human) [5] = molecular target: PIM2 (human) (UniProt Q9P1W9); experiment: KINOMEscan competition binding; settings: compound 10.0 µM
HIPK1 (human) [6] = molecular target: HIPK1 (human) (UniProt Q86Z02); experiment: KINOMEscan competition binding; settings: compound 10.0 µM
STK17B (human) = STK17B (human) (UniProt O94768); experiment: KINOMEscan competition binding; settings: compound 10.0 µM
[7] = test system: PIK3CA (human), P42336 [E545K]; experiment: KINOMEscan competition binding; settings: compound 10.0 µM
RPS6KA4 KD2 (human) = RPS6KA4 KD2 (human) (UniProt O75676); experiment: KINOMEscan competition binding; settings: compound 10.0 µM
TTK (human) [8] = molecular target: TTK (human) (UniProt P33981); experiment: SelectScreen, TR FRET
PLK3 (human) = PLK3 (human) (UniProt Q9H4B4); experiment: KINOMEscan competition binding; settings: compound 10.0 µM
MYLK (human) = MYLK (human) (UniProt Q15746); experiment: KINOMEscan competition binding; settings: compound 10.0 µM
[9] = test system: EGFR (human), P00533 [P753S; 747-752 del]; experiment: KINOMEscan competition binding; settings: compound 10.0 µM
TNK1 (human) = TNK1 (human) (UniProt Q13470); experiment: KINOMEscan competition binding; settings: compound 10.0 µM
PLK1 (human) = PLK1 (human) (UniProt P53350); experiment: KINOMEscan competition binding; settings: compound 10.0 µM
STK33 (human) = STK33 (human) (UniProt Q9BYT3); experiment: KINOMEscan competition binding; settings: compound 10.0 µM
[10] = test system: EGFR (human), P00533 [A750P; 747-749 del]; experiment: KINOMEscan competition binding; settings: compound 10.0 µM
TTK (human) [11] = molecular target: TTK (human) (UniProt P33981); experiment: KINOMEscan competition binding
[12] = test system: EGFR (human), P00533 [G719C; 746-750 del]; experiment: KINOMEscan competition binding; settings: compound 10.0 µM
PTK2 (human) = PTK2 (human) (UniProt Q05397); experiment: KINOMEscan competition binding; settings: compound 10.0 µM
PTK2B (human) = PTK2B (human) (UniProt Q14289); experiment: KINOMEscan competition binding; settings: compound 10.0 µM
PLK4 (human) = PLK4 (human) (UniProt O00444); experiment: KINOMEscan competition binding; settings: compound 10.0 µM
GAK (human) = GAK (human) (UniProt O14976); experiment: KINOMEscan competition binding; settings: compound 10.0 µM
DAPK2 (human) = DAPK2 (human) (UniProt Q9UIK4); experiment: KINOMEscan competition binding; settings: compound 10.0 µM
[13] = test system: EGFR (human), P00533 [747-751 del / S ins]; experiment: KINOMEscan competition binding; settings: compound 10.0 µM
[14] = test system: EGFR (human), P00533 [752-759 del]; experiment: KINOMEscan competition binding; settings: compound 10.0 µM

Sequence of HIPK1 (human) (Q86Z02 whole entry, looked up): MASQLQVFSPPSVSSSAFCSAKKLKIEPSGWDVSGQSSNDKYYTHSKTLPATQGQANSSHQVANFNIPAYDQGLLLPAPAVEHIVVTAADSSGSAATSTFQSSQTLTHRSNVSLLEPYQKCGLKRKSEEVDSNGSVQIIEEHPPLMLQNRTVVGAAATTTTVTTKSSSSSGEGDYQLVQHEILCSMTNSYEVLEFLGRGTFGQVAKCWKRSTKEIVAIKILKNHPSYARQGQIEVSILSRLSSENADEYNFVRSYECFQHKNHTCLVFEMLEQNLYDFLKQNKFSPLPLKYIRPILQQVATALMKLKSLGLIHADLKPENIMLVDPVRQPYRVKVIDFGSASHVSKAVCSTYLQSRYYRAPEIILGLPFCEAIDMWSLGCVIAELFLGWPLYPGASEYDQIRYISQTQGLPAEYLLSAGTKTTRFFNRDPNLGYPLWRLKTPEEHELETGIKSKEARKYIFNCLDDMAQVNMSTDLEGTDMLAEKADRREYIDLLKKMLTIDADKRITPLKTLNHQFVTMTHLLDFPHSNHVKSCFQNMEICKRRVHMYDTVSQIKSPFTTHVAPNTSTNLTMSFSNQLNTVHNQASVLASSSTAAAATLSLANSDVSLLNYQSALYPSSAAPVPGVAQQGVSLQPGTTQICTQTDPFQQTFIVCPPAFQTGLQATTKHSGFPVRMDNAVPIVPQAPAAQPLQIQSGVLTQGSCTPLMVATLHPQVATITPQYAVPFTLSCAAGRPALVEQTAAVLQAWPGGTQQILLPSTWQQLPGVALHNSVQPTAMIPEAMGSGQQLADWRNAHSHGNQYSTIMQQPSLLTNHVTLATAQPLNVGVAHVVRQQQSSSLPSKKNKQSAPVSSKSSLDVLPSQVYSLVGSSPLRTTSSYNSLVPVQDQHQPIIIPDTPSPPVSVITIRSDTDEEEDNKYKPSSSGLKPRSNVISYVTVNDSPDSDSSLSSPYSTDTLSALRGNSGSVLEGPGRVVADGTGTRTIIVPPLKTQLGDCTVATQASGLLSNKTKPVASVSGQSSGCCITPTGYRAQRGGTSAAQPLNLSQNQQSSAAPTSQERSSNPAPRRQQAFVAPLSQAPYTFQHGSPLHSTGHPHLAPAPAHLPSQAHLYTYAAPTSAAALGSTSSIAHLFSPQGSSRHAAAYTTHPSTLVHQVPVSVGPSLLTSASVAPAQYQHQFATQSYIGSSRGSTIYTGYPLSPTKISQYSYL
Sequence of TTK (human) (P33981 whole entry, looked up): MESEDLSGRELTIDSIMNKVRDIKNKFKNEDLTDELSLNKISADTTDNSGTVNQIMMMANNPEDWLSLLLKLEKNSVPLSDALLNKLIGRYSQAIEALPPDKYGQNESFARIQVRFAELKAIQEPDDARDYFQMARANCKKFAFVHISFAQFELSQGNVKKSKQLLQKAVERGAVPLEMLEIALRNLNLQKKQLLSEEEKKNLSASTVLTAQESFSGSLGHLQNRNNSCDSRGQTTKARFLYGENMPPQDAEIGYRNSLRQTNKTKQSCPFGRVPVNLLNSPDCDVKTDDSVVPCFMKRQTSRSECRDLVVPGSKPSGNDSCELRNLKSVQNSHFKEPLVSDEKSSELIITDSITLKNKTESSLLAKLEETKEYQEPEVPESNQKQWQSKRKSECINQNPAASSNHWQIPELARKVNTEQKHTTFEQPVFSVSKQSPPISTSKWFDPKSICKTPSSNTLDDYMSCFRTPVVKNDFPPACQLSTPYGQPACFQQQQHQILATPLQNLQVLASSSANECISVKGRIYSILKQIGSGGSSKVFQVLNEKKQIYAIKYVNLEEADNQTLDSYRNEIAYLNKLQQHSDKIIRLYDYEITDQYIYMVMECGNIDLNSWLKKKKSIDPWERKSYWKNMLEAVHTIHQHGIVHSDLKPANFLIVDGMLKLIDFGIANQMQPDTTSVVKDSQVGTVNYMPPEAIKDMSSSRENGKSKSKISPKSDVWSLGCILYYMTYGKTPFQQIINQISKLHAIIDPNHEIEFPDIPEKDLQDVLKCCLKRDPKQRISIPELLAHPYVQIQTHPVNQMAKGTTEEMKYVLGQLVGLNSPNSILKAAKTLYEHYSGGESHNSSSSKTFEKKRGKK
Sequence of HIPK2 (human) (Q9H2X6 whole entry, looked up): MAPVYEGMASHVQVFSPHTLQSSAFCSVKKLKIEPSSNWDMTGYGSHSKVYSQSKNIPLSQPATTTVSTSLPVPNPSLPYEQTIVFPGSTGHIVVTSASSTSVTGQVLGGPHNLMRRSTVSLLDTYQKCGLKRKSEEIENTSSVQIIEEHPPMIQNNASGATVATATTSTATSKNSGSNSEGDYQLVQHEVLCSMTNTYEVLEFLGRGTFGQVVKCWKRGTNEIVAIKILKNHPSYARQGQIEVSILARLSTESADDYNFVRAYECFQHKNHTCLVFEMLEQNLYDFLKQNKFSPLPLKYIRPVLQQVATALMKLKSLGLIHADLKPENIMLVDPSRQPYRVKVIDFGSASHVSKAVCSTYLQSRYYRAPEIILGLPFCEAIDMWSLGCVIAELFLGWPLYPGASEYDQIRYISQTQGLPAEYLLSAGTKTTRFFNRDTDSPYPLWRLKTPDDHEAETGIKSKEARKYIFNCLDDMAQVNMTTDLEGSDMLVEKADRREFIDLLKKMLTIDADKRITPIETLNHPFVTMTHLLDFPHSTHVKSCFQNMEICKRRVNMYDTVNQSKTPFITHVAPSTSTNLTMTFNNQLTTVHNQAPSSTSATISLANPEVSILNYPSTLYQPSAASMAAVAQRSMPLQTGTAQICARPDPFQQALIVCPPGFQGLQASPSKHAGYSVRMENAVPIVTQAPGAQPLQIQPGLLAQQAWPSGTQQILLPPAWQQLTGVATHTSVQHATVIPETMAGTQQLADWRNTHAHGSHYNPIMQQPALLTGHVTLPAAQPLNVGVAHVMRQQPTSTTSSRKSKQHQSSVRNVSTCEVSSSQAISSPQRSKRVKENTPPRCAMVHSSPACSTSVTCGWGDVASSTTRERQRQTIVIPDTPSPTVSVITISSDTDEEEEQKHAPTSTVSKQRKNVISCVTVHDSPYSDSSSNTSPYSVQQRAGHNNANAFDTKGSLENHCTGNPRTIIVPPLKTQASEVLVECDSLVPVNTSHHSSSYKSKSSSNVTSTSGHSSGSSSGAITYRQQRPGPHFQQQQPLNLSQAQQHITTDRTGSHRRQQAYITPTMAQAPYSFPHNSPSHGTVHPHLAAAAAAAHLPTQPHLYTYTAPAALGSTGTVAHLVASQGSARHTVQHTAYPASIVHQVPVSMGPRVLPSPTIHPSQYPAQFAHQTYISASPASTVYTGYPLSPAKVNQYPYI
Sequence of PIM1 (human) (P11309 whole entry, looked up): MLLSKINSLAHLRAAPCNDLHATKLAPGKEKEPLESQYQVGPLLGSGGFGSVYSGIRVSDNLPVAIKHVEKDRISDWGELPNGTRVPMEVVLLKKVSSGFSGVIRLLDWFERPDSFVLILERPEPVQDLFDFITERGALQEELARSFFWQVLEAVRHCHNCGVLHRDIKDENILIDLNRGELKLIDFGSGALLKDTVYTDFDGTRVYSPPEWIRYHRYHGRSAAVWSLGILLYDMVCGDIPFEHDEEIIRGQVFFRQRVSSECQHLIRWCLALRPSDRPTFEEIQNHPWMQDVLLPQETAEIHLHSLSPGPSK
Sequence of PIM2 (human) (Q9P1W9 whole entry, looked up): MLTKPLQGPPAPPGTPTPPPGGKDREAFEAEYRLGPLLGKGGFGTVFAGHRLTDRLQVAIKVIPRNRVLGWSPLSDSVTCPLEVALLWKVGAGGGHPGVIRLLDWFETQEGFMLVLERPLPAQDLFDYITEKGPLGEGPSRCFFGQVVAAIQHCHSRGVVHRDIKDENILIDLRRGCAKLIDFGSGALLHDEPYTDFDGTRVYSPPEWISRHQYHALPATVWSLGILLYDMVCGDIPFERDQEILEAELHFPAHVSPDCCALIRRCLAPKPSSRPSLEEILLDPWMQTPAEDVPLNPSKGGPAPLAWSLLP
Sequence of DAPK2 (human) (Q9UIK4 whole entry, looked up): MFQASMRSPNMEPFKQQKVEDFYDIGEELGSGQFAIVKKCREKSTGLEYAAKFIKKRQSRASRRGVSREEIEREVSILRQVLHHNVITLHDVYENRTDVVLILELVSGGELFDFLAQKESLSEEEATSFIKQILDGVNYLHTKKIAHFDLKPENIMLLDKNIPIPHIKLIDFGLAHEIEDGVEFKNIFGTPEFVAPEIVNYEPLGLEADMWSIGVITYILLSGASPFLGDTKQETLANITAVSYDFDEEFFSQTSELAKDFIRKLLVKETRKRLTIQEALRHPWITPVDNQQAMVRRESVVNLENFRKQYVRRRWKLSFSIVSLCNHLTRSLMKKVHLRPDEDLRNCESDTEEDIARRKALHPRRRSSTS
Sequence of STK17B (human) (O94768 whole entry, looked up): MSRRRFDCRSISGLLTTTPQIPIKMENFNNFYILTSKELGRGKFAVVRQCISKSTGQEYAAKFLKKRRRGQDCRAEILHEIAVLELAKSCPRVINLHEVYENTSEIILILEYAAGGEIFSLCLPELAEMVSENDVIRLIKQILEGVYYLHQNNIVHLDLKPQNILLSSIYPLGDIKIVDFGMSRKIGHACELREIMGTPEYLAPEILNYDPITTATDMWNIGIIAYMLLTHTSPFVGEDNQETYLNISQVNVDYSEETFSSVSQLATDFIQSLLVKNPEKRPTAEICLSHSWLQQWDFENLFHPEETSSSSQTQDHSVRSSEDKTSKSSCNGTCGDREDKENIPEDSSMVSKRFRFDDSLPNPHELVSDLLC

IC50 (HIPK1 (human) [1]): > 10000 nM
IC50 (HIPK2 (human)): > 10000 nM
SMILES: O=C1NC(=O)/C(=C/c2c[nH]c(=O)c(-c3cncc4ccccc34)c2)S1

IC50 (HIPK1 (human) [1]): 228 nM
IC50 (HIPK2 (human)): 178 nM
SMILES: O=C1NC(=O)/C(=C/c2c[nH]c(=O)c(-c3cnc4ccccc4c3)c2)S1

IC50 (HIPK1 (human) [1]): 6530 nM
IC50 (HIPK2 (human)): 4900 nM
SMILES: O=C1NC(=O)/C(=C/c2c[nH]c(=O)c(-c3ccc(N4CCC(N5CCCC5)CC4)nc3)c2)S1

IC50 (HIPK1 (human) [1]): 52 nM
IC50 (HIPK2 (human)): 45 nM
SMILES: O=C1NC(=O)/C(=C/c2c[nH]c(=O)c(-c3ccc(N4CCNCC4)cc3)c2)S1

IC50 (PIM1 (human) [2]): 768 nM
IC50 (PIM2 (human) [3]): 1920 nM
kinase still bound, per cent of control (PIK3CG (human)): 1.6%
kinase still bound, per cent of control (CSNK2A2 (human)): 22%
kinase still bound, per cent of control (MINK1 (human)): 30%
kinase still bound, per cent of control (STK17A (human)): 25%
kinase still bound, per cent of control (PIM1 (human) [4]): 3.3%
kinase still bound, per cent of control (CDK7 (human)): 0.9%
kinase still bound, per cent of control (PIM3 (human)): 4.8%
kinase still bound, per cent of control (TGFBR2 (human)): 32%
kinase still bound, per cent of control (PIM2 (human) [5]): 0.45%
kinase still bound, per cent of control (HIPK1 (human) [6]): 22%
kinase still bound, per cent of control (STK17B (human)): 7.7%
kinase still bound, per cent of control [7]: 32%
kinase still bound, per cent of control (RPS6KA4 KD2 (human)): 30%
SMILES: CS(=O)(=O)Nc1ccc(-c2ccc(/C=C3\SC(=N)NC3=O)o2)c(O)c1
kinase still bound, per cent of control (MAPK15 (human)): 0.55%

IC50 (TTK (human) [8]): 342 nM
kinase still bound, per cent of control (PLK3 (human)): 0%
kinase still bound, per cent of control (MYLK (human)): 25%
kinase still bound, per cent of control [9]: 33%
kinase still bound, per cent of control (TNK1 (human)): 26%
kinase still bound, per cent of control (PLK1 (human)): 3%
kinase still bound, per cent of control (STK33 (human)): 11%
kinase still bound, per cent of control [10]: 22%
Kd (TTK (human) [11]): 28.4 nM
kinase still bound, per cent of control (TTK (human) [11]; compound 10.0 µM): 3.2%
kinase still bound, per cent of control [12]: 32%
kinase still bound, per cent of control (PTK2 (human)): 6.8%
kinase still bound, per cent of control (PTK2B (human)): 18%
kinase still bound, per cent of control (PLK4 (human)): 8.3%
kinase still bound, per cent of control (GAK (human)): 1.8%
kinase still bound, per cent of control (DAPK2 (human)): 31%
kinase still bound, per cent of control [13]: 29%
kinase still bound, per cent of control [14]: 28%
SMILES: COc1cc(N2CCC(O)CC2)ccc1Nc1ncc2c(n1)N(C1CCCC1)CCC(=O)N2C

IC50 (HIPK1 (human) [1]): 317 nM
IC50 (HIPK2 (human)): 163 nM
SMILES: N=C1NC(=O)/C(=C/c2c[nH]c(=O)c(-c3cccc(N)c3)c2)S1

IC50 (HIPK1 (human) [1]): 392 nM
IC50 (HIPK2 (human)): 173 nM
SMILES: O=C1NC(=O)/C(=C/c2c[nH]c(=O)c(-c3ccc(N4CCN(Cc5ccccc5)CC4)nc3)c2)S1

IC50 (HIPK1 (human) [1]): > 10000 nM
IC50 (HIPK2 (human)): > 10000 nM
SMILES: O=C1NC(=O)/C(=C/c2c[nH]c(=O)c(-c3ccc(N4CCNCC4)nc3)c2)N1

From the kinase profiling compilation of Christmann-Franck et al. (2016)
